The numbers were not newly measured in US20050096369A1, “Compositions and methods for treating cellular proliferation disorders” (priority 2003, published 2005), which cites them from elsewhere.

A value given as a limit tells only on which side of the number the result lay.

Data set [1] has as its system voltage gated calcium channels. The conditions noted are these: cultured rat hippocampal neurons; concentration and voltage dependant (Weng et al., 2003).
Data set [2] deals with cell lines derived from human malignancies. The settings on record: Pizer et al.
For data set [3] the following is noted: Merck Index.
A further data set concerns leukemia cells. The settings on record: Zhu Ningxi, et al.
The test system of data set [4] is voltage-gated sodium channel. The conditions noted are these: PDR and Zhou, 2003.
Test in data set [5]: not given
This is another data set of the same source.

For the next data set, the system named is calcium-channel. The settings on record: PDR and Zhou, 2003.

For `N=C(N)NCCCCN` [Agmatine, agmatine], the “effect on voltage gated calcium channels” value in data set [1] is “block voltage gated calcium channels”.
For the compound `C/C=C/C/C=C/CCC(=O)[C@H]1O[C@H]1C(N)=O` [cerulenin], the cytotoxicity entry in data set [2] is listed as “selectively cytotoxic to cell lines derived from human malignancies”.
Take `O=C1CCC[C@@H]2[C@H]3CCCN4CCC[C@@H](CN12)[C@@H]34` [matrine]: the water solubility entry in data set [3] is “water soluble”. In addition, the “effect on leukemia cell differentiation” value with leukemia cells was “could help leukemia cells differentiate into mature and normal white blood cells”. Further, the “time to excretion by the kidneys” value (in vivo) is ≤ 24 h. Further, where the note is “not converted by the liver”, the “stability in the blood” value is given as “stable in the blood”.
For the compound `O=C1CCC[C@@H]2[C@H]3CCC[N+]4([O-])CCC[C@@H](CN12)[C@@H]34` (stereo partly drawn) [oxymatrine], the “fate when administered by injection” value (injection) is “stable and is excreted as oxymatrine”. Also, for the setting “oral”, the “fate when taken orally” value is “converted to matrine”.
Regarding `CCOC(=O)C1=C[C@]2(CC)CCCN3CCc4c(n1c1ccccc41)[C@@H]32` [vinpocetine, eburnamenine-14-carboxylic acid ethyl ester], in data set [4], the “voltage-gated sodium channel blocking” value is on record as “voltage-gated sodium channel blocking activity”. For the same compound, in data set [5] (after ingestion), the “time to peak plasma levels” value is “one to one and a half”. In addition, the “time in which most of a dose is excreted” value in data set [5] (excreted in urine as apovincaminic acid) was ≤ 24 h. Besides, the elimination half-life result in data set [5] (following ingestion) is on record as “one to two”. The absorption entry in data set [5] (given with food) was “up to 60 % of an ingested dose”. Further, the “absorption of an ingested dose” value in data set [5] (on an empty stomach) is on record as ≥ 7%. Further, the calcium-channel blocking result in the data set on calcium-channel is given as “calcium-channel blocking activity”.
